Laboratory results reported in patent US20260152504A1, “PYRIMIDINE SGC STIMULATORS” (Tisento Therapeutics Inc., priority 2022, published 2026).

Biological target: T1, sGC (Rattus norvegicus, UniProt P20595)
T1 construct: Rat primary neurons were isolated from timed-pregnant female Sprague-Dawley (SD) rats; endogenous in cells; host or cells: rat primary neurons (Sprague-Dawley)
T1 sequence (P20595 1-619): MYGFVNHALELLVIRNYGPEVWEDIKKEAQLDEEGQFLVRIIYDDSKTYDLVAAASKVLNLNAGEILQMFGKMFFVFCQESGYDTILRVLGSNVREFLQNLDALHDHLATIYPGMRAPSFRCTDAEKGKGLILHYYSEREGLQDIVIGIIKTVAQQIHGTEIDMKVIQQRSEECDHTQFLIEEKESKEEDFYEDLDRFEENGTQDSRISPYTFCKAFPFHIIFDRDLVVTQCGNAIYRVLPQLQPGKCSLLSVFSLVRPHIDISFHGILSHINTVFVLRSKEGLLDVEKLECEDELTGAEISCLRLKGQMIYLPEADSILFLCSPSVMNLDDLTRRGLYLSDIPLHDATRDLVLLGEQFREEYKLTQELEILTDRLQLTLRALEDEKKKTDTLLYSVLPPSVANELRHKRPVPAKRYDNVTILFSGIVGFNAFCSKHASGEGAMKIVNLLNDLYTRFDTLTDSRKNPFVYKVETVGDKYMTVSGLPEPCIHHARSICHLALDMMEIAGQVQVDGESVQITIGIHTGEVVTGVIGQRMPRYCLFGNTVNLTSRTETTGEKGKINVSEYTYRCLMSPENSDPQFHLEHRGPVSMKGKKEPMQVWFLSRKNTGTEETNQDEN
T1 sequence (P19686 1-690 partner): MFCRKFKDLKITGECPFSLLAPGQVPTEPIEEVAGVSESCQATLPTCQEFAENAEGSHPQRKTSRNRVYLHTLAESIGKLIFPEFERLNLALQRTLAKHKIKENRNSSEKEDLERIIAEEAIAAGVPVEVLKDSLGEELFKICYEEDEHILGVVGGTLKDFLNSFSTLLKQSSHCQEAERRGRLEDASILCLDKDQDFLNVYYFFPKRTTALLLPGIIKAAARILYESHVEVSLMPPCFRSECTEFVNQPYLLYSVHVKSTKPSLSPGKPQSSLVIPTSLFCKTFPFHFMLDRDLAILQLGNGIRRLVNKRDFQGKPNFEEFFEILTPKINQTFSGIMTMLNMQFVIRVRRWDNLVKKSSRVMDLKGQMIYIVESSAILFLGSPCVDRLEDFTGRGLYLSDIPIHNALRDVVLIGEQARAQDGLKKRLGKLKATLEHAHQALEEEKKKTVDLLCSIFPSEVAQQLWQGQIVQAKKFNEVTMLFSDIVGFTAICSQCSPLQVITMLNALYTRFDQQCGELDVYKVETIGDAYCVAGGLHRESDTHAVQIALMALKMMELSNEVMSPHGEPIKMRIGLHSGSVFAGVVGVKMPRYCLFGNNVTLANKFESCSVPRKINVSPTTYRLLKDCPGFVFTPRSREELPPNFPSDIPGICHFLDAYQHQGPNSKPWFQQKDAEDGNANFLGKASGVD
Experiment: cGMP measurement in rat primary neurons (neuronal-based cell assay)
Details: rat primary neurons (Sprague-Dawley); 0.5 mM IBMX; test compound with fixed DETA (Diethylenetriamine NONOate); 20 min at 37° C.; cGMP by CatchPoint kit; read-out: sGC Neuron EC50
Description: Example 2: cGMP Measurement in Rat Primary Neurons
Rat primary neurons were isolated from timed-pregnant female Sprague-Dawley (SD) rats, washed once with HBSS with calcium and magnesium and incubated with a solution containing 0.5 mM 3-isobutyl-1-methylxanthine (IBMX) in HBSS (80 μL/well) at 37° C. for 15 min. Next, a 5× stock […] of test compound with a fixed concentration of DETA (Diethylenetriamine NONOate) was added to the wells to make x nM concentration for test compound solutions and a 30 µM concentration for DETA solution, where x was 1 of the following final concentrations: 0.029, 0.114, 0.460, 1.83, 7.32, 29.29, 117.2, 468.8, 1875, 7500 and 30,000 nM. Then, the cells were incubated for 20 min at 37° C. At the end of incubation, 100 μL lysis buffer (Molecular Devices) was added to cells. CatchPoint™ Cyclic-GMP Fluorescent Assay Kit was used with Molecular Devices' ID3 multi-mode plate reading. Sample cGMP concentrations were extrapolated from standard curve using Softmax Pro 7 Software. A well-characterized, potent sGC stimulator was included in all assay runs and used as a positive control.
Test compound (“agonist”) concentrations vs extrapolated cGMP concentrations (“response”) were plotted and analyzed using GraphPad Prism version 9.4.1. Curve fit was used for each dataset; non-linear log(agonist) vs. response-variable slope (four parameters). The EC50 is interpolated from the curve fit and is defined as the concentration at which the compound elicits 50% of its maximal response. When the experiment is carried out more than two times, the geometric mean is reported, otherwise the arithmetic mean is shown. To increase the accuracy of the EC50 calculations, top and bottom parameters were constrained when consistent with the observed data in a given assay run. For instance, in assay runs where the cGMP response values in the absence of test article were consistent across plates, an average across all of these wells was used as a lower constraint in the calculations. In assay runs where the maximal cGMP responses were consistent with that of the positive control, a top constraint equal to the maximal cGMP response of the positive control was applied. If there was significant variability in cGMP response in no compound wells or variation in maximal responses across plates, no constraints were imposed.

| SMILES | EC50 [nM] |
| --- | --- |
| Cc1cnc2c(Cc3cc(F)c(Cl)cc3F)nc(-c3nc(O)c(F)c(O)n3)cn12 [Compound I-6, 2-(8-(4-chloro-2,5-difluorobenzyl)-3-methylimidazo[1,2-a]pyrazin-6-yl)-5-fluoropyrimidine-4,6-diol] | > 5000 |
| Cc1cc(F)c(Cc2nc(-c3nc(O)c(F)c(CF)n3)cn3ccnc23)cc1F [Compound I-45, 2-(8-(2,5-difluoro-4-methylbenzyl)imidazo[1,2-a]pyrazin-6-yl)-5-fluoro-6-(fluoromethyl)pyrimidin-4-ol] | 100 to 1000 |
| COCc1nc(-c2cn3ccnc3c(Cc3cc(F)c(C)cc3F)n2)nc(O)c1OC [Compound I-27, 2-(8-(2,5-difluoro-4-methylbenzyl)imidazo[1,2-a]pyrazin-6-yl)-5-methoxy-6-(methoxymethyl)pyrimidin-4-ol] | > 5000 |
| Cc1cc(C#N)c(F)cc1Cc1nc(-c2ncc(F)c(O)n2)cn2c(F)cnc12 [Compound I-4, 2-fluoro-4-((3-fluoro-6-(5-fluoro-4-hydroxypyrimidin-2-yl)imidazo[1,2-a]pyrazin-8-yl)methyl)-5-methylbenzonitrile] | > 5000 |
| COc1cnc2c(Cc3cc(F)c(C)cc3F)nc(-c3ncc(C)c(O)n3)cn12 [Compound I-7, 2-(8-(2,5-difluoro-4-methylbenzyl)-3-methoxyimidazo[1,2-a]pyrazin-6-yl)-5-methylpyrimidin-4-ol] | > 5000 |
| CCc1cc(O)nc(-c2cn3ccnc3c(Cc3cc(F)c(C)cc3F)n2)n1 [Compound I-30, 2-{8-[(2,5-difluoro-4-methylphenyl)methyl]imidazo[1,2-a]pyrazin-6-yl}-6-ethylpyrimidin-4-ol] | 1000 to 5000 |
| Cc1cc(F)c(Cc2nc(-c3ncc(F)c(O)n3)cn3c(CO)cnc23)cc1F [Compound I-35, 2-(8-(2,5-difluoro-4-methylbenzyl)-3-(hydroxymethyl)imidazo[1,2-a]pyrazin-6-yl)-5-fluoropyrimidin-4-ol] | 1000 to 5000 |
| Cc1cc(F)c(Cc2nc(-c3nc(O)cc(CCO)n3)cn3ccnc23)cc1F [Compound I-26, 2-(8-(2,5-difluoro-4-methylbenzyl)imidazo[1,2-a]pyrazin-6-yl)-6-(2-hydroxyethyl)pyrimidin-4-ol] | > 5000 |
| COc1cnc2c(Cc3cc(F)c(C)cc3F)nc(-c3ncc(Cl)c(O)n3)cn12 [Compound I-29, 5-chloro-2-{8-[(2,5-difluoro-4-methylphenyl)methyl]-3-methoxyimidazo[1,2-a]pyrazin-6-yl}pyrimidin-4-ol] | 100 to 1000 |
| Cc1cc(F)c(Cc2nc(-c3ncc(C(C)O)c(O)n3)cn3ccnc23)cc1F (centres unmarked) [Compound I-28, 2-(8-(2,5-difluoro-4-methylbenzyl)imidazo[1,2-a]pyrazin-6-yl)-5-(1-hydroxyethyl)pyrimidin-4-ol] | 100 to 1000 |
| COc1c(O)nc(-c2cn3ccnc3c(Cc3cc(F)c(C)cc3F)n2)nc1CF [Compound I-21, 2-(8-(2,5-difluoro-4-methylbenzyl)imidazo[1,2-a]pyrazin-6-yl)-6-(fluoromethyl)-5-methoxypyrimidin-4-ol] | 100 to 1000 |
| Cc1nc(-c2cn3c(C(C)O)cnc3c(Cc3cc(F)ccc3F)n2)nc(O)c1F (centres unmarked) [Compound I-31, 2-(8-(2,5-difluorobenzyl)-3-(1-hydroxyethyl)imidazo[1,2-a]pyrazin-6-yl)-5-fluoro-6-methylpyrimidin-4-ol] | > 5000 |
| COc1cnc2c(Cc3cc(F)c(C#N)cc3C)nc(-c3ncc(F)c(O)n3)cn12 [Compound I-32, 2-fluoro-4-((6-(5-fluoro-4-hydroxypyrimidin-2-yl)-3-methoxyimidazo[1,2-a]pyrazin-8-yl)methyl)-5-methylbenzonitrile] | > 5000 |
| CC(=O)c1ccc(Cc2nc(-c3ncc(F)c(O)n3)cn3c(Cl)cnc23)c(F)c1 [Compound I-9, 1-(4-((3-chloro-6-(5-fluoro-4-hydroxypyrimidin-2-yl)imidazo[1,2-a]pyrazin-8-yl)methyl)-3-fluorophenyl)ethan-1-one] | > 5000 |
| Cc1cc(F)c(Cc2nc(-c3nc(O)c(F)c(CF)n3)cn3ncnc23)cc1F [Compound I-5, 2-(8-(2,5-difluoro-4-methylbenzyl)-[1,2,4]triazolo[1,5-a]pyrazin-6-yl)-5-fluoro-6-(fluoromethyl)pyrimidin-4-ol] | 1000 to 5000 |
| CCOCc1nc(-c2cn3ncnc3c(Cc3cc(F)c(C)cc3F)n2)nc(O)c1F [Compound I-44, 2-(8-(2,5-difluoro-4-methylbenzyl)-[1,2,4]triazolo[1,5-a]pyrazin-6-yl)-6-(ethoxymethyl)-5-fluoropyrimidin-4-ol] | > 5000 |
| Cc1cc(F)c(Cc2nc(-c3ncc(CO)c(O)n3)cn3ccnc23)cc1F [Compound I-25, 2-(8-(2,5-difluoro-4-methylbenzyl)imidazo[1,2-a]pyrazin-6-yl)-5-(hydroxymethyl)pyrimidin-4-ol] | 100 to 1000 |
| CC(=O)c1cnc2c(Cc3cc(F)ccc3F)nc(-c3nc(C)c(F)c(O)n3)cn12 [Compound I-8, 1-(8-(2,5-difluorobenzyl)-6-(5-fluoro-4-hydroxy-6-methylpyrimidin-2-yl)imidazo[1,2-a]pyrazin-3-yl)ethan-1-one] | > 5000 |
| COCc1nc(-c2cn3ccnc3c(Cc3cc(F)c(C)cc3F)n2)nc(O)c1F [Compound I-22, 2-(8-(2,5-difluoro-4-methylbenzyl)imidazo[1,2-a]pyrazin-6-yl)-5-fluoro-6-(methoxymethyl)pyrimidin-4-ol] | 100 to 1000 |
| Cc1cc(F)c(Cc2nc(-c3ncc(C#N)c(O)n3)cn3c(F)cnc23)cc1F [Compound I-17, 2-(8-(2,5-difluoro-4-methylbenzyl)-3-fluoroimidazo[1,2-a]pyrazin-6-yl)-4-hydroxypyrimidine-5-carbonitrile] | ≤ 100 |
| N#Cc1cn2cc(-c3ncc(F)c(O)n3)nc(Cc3cc(F)c(F)cc3F)c2n1 [Compound I-3, 6-(5-fluoro-4-hydroxypyrimidin-2-yl)-8-(2,4,5-trifluorobenzyl)imidazo[1,2-a]pyrazine-2-carbonitrile] | ≤ 100 |
| CC(=O)c1cnc(-c2cn3ccnc3c(Cc3cc(F)c(C)cc3F)n2)nc1O [Compound I-24, 1-(2-(8-(2,5-difluoro-4-methylbenzyl)imidazo[1,2-a]pyrazin-6-yl)-4-hydroxypyrimidin-5-yl)ethan-1-one] | 100 to 1000 |
| CSc1cnc2c(Cc3cc(F)c(C)cc3F)nc(-c3nc(O)c(C)c(Br)n3)cn12 [Compound I-12, 6-bromo-2-(8-(2,5-difluoro-4-methylbenzyl)-3-(methylthio)imidazo[1,2-a]pyrazin-6-yl)-5-methylpyrimidin-4-ol] | > 5000 |
